This is an account of results in patent US20260274833A1 (NiKang Therapeutics, Inc., priority 2022, published 2026).

This test deals with T1, CDK2 (Homo sapiens, UniProt P24941).
T1 construct: endogenous in cells; host or cells: OVCAR3 cells
Nature of the test: Phospho-RB measurement in OVCAR3 cells (HTRF phospho-RB cellular kit). Type of test: cell-based. To be noted: 24 h compound treatment. An outline of the steps:
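IC50 came from a four-parameter logistic fit of the DMSO-normalized TR-FRET ratio (665/620 nm). That ratio reflects RB phosphorylation at S807/811, read with an HTRF antibody pair 4 h after adding lysate at room temperature.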

Where [1] appears, read: inhibition of RB phosphorylation at S807/811 (HTRF, TR-FRET ratio 665/620), 0.3 to 10,000 nM.

Some results are limits rather than exact numbers.

As usually defined, the IC50 is the point on the concentration scale where inhibition reaches its midpoint. Take `CN1CC2CCC(C1)N2c1nc(-c2cccc(NS(=O)(=O)N3Cc4cccc(OC(F)F)c4C3)c2F)c(-c2ccnc(NC3CC4(C3)CS(=O)(=O)C4)n2)s1` [Example 30, 4-(difluoromethoxy)-N-(3-(5-(2-((2,2-dioxido-2-thiaspiro [3.3]heptan-6-yl)amino)pyrimidin-4-yl)-2-(3-methyl-3,8-diazabicyclo [3.2.1]-octan-8-yl)thiazol-4-yl)-2-fluorophenyl)-isoindoline-2-sulfonamide]: the IC50 under setting [1] was 28.5 nM.
Still for that read-out and setting: as for `CN(C)CCN(C)S(=O)(=O)N1CCC(Nc2nccc(-c3sc(C(C)(C)C)nc3-c3cccc(NS(=O)(=O)N4Cc5ccncc5C4)c3F)n2)CC1` [Example 157, N-(3-(2-(tert-butyl)-5-(2-((1-(N-(2-(dimethyl-amino)ethyl)-N-methylsulfamoyl)piperidin-4-yl)amino)-pyrimidin-4-yl)thiazol-4-yl)-2-fluoro-phenyl)-1,3-dihydro-2H-pyrrolo [3,4-c]-pyridine-2-sulfonamide], the figure is 191 nM; as for `CNCCOc1cccc2c1CCN2S(=O)(=O)Nc1cccc(-c2nc(C(C)(C)C)sc2-c2ccnc(NC3CCN(S(C)(=O)=O)CC3)n2)c1F` [Example 181, N-(3-(2-(tert-butyl)-5-(2-((1-(methylsulfonyl)-piperidin-4-yl)amino)-pyrimidin-4-yl)thiazol-4-yl)-2-fluoro-phenyl)-4-(2-(methylamino)-ethoxy)-indoline-1-sulfonamide], 1890 nM.
For `CC(C)(C)c1nc(-c2cccc(NS(=O)(=O)N3CCn4cnnc4C3)c2F)c(-c2ccnc(NC3CCN(S(C)(=O)=O)CC3)n2)s1` [Example 90, N-(3-(2-(tert-butyl)-5-(2-((1-(methylsulfonyl)-piperidin-4-yl)amino)-pyrimidin-4-yl)thiazol-4-yl)~2~fluoro-phenyl)-5,6-dihydro-[1,2,4] triazolo-[4,3-a]pyrazine-7(8H)-sulfonamide], where the note is “inhibition of RB phosphorylation at S807/811 (HTRF)”, the concentration for half-maximal inhibition (IC50) was above 10000 nM.
Regarding `CC(C)(C)c1nc(-c2cccc(NS(=O)(=O)N3Cc4ccc(C(F)F)cc4C3)c2F)c(-c2ccnc(NC3CCN(S(C)(=O)=O)CC3)n2)s1` [Example 254, N-(3-(2-(tert-butyl)-5-(2-((1+ (methylsulfonyl)-piperidin-4-yl)amino)-pyrimidin-4-yl)thiazol-4-yl)-2-fluoro-phenyl)-5-(difluoromethyl)-isoindoline-2-sulfonamide], under setting [1], the concentration for half-maximal inhibition (IC50) stood at 317 nM.
For the molecule `CN1CC2CCC(C1)N2c1nc(-c2cccc(NS(=O)(=O)N3CCc4ccc(Cl)cc43)c2F)c(-c2ccnc(NC3CC4(C3)CS(=O)(=O)C4)n2)s1` [Example 43, 6-chloro-N-(3-(5-(2-((2,2-dioxido-2-thiaspiro[3.3]heptan-6-yl)amino)-pyrimidin-4-yl)-2-(3-methyl-3,8-diazabicyclo [3.2.1]octan-8-yl)thiazol-4-yl)-2-fluorophenyl) indoline-1-sulfonamide], under setting [1], the IC50 stood at 27.1 nM.
Still for that read-out and setting: as for `CN(C1CCC1)S(=O)(=O)Nc1cccc(-c2nc(C(C)(C)C)sc2-c2ccnc(NC3CCN(S(=O)(=O)N4CCNCC4)CC3)n2)c1F` [Example 107, N-(3-(2-(tert-butyl)-5-(2-((1-(piperazin-1-yl-sulfonyl)piperidin-4-yl)amino)-pyrimidin-4-yl)thiazol-4-yl)-2-fluoro-phenyl)(N-methyl-N-cyclo-butylamine)-sulfonamide], the figure is 919 nM; as for `CC(C)(C)c1nc(-c2cccc(NS(=O)(=O)N3Cc4ccccc4C3)c2F)c(-c2ccnc(Nc3ccc(N4CCNCC4)cc3)n2)s1` [Example 79, N-(3-(2-(tert-butyl)-5-(2-((4-(piperazin-1-yl)-phenyl)amino)pyrimidin-4-yl)thiazol-4-yl)-2-fluorophenyl)-isoindoline-2-sulfonamide], 220 nM.
The same measure, in the same setting: next, `CN1CCN(S(=O)(=O)Nc2cccc(-c3nc(C(C)(C)C)sc3-c3ccnc(NC4CCN(S(C)(=O)=O)CC4)n3)c2F)CC1=O` [Example 89, N-(3-(2-(tert-butyl)-5-(2-((1-(methylsulfonyl)-piperidin-4-yl)amino)-pyrimidin-4-yl)thiazol-4-yl)-2-fluoro-phenyl)-4-methyl-3-oxopiperazine-1-sulfonamide]: 4810 nM; `CN(C)Cc1ccc2c(c1)CN(S(=O)(=O)Nc1cccc(-c3nc(C(C)(C)C)sc3-c3ccnc(NC4CCN(S(C)(=O)=O)CC4)n3)c1F)C2` [Example 171, N-(3-(2-(tert-butyl)-5-(2-((1-(methylsulfonyl)-piperidin-4-yl)amino)-pyrimidin-4-yl)thiazol-4-yl)-2-fluoro-phenyl)-5-((dimethylamino)methyl)-isoindoline-2-sulfonamide]: 2120 nM.
In the case of `CC(C)(C)c1nc(-c2cccc(NS(=O)(=O)N3CCC4(CCC4)C3)c2F)c(-c2ccnc(NC3CC4(C3)CS(=O)(=O)C4)n2)s1` [Example 182, N-(3-(2-(tert-butyl)-5-(2-((2,2-dioxido-2-thiaspiro[3.3]heptan-6-yl)amino)-pyrimidin-4-yl)thiazol-4-yl)-2-fluoro-phenyl)-6-azaspiro[3.4] octane-6-sulfonamide], the 50% inhibitory concentration (IC50) under setting [1] was 1190 nM.
Still for that read-out and setting: next, `CC1(c2nc(-c3cccc(NS(=O)(=O)N4CCc5ccc(C#N)cc54)c3F)c(-c3ccnc(Nc4ccc(N5CCNCC5)cc4)n3)s2)CCOCC1` [Example 236, 6-cyano-N-(2-fluoro-3-(2-(4-methyltetrahydro-2H-pyran-4-yl)-5-(2-((4-(piperazin-1-yl)-phenyl)amino)-pyrimidin-4-yl)thiazol-4-yl)-phenyl)indoline-1-sulfonamide]: 477 nM.
On the same count and under the same terms, as for `CNc1cccc2c1CN(S(=O)(=O)Nc1cccc(-c3nc(C(C)(C)C)sc3-c3ccnc(NC4CC5(C4)CS(=O)(=O)C5)n3)c1F)C2` [Example 207, N-(3-(2-(tert-butyl)-5-(2-((2,2-dioxido-2-thiaspiro[3.3]heptan-6-yl)amino)-pyrimidin-4-yl)thiazol-4-yl)-2-fluorophenyl)-4-(methylamino)-isoindoline-2-sulfonamide], the figure is 199 nM; as for `CN1CC(N(C)S(=O)(=O)N2CCC(Nc3nccc(-c4sc(C(C)(C)C)nc4-c4cccc(NS(=O)(=O)N5Cc6ccccc6C5)c4F)n3)CC2)C1` [Example 179, N-(3-(2-(tert-butyl)-5-(2-((1-(N-methyl-N-(1-methylazetidin-3-yl)sulfamoyl)-piperidin-4-yl)amino)pyrimidin-4-yl)-thiazol-4-yl)-2-fluorophenyl)-isoindoline-2-sulfonamide], 241 nM.
Turning to `CN1CC2CCC(C1)N2c1nc(-c2cccc(NS(=O)(=O)N3Cc4ccccc4C3)c2F)c(-c2ccnc(NC3CC4(C3)CS(=O)(=O)C4)n2)s1` [Example 15, N-(3-(5-(2-((2,2-dioxido-2-thiaspiro-[3.3]-heptan-6-yl)amino)pyrimidin-4-yl)-2-(3-methyl-3,8-diazabicyclo[3.2.1]-octan-8-yl)thiazol-4-yl)-2-fluorophenyl)-isoindoline-2-sulfonamide], the IC50 under setting [1] came out at 72.5 nM.
Consider `CN(c1ccccc1)S(=O)(=O)Nc1cccc(-c2nc(C(C)(C)C)sc2-c2ccnc(NC3CCN(S(C)(=O)=O)CC3)n2)c1F` [Example 100, N-(3-(2-(tert-butyl)-5-(2-((1-(methylsulfonyl)piperidin-4-yl)amino)-pyrimidin-4-yl)thiazol-4-yl)-2-fluorophenyl)(N-methyl-N-phenyl)-aminosulfonamide], for which the half-maximal inhibitory concentration (IC50) under setting [1] came out at 1240 nM.
Same read-out and setting: as for `O=S1(=O)CC2(CC(Nc3nccc(-c4sc(N5C6CCC5CN(CC(F)(F)F)C6)nc4-c4cccc(NS(=O)(=O)N5Cc6cccc(OC(F)F)c6C5)c4F)n3)C2)C1` [Example 33, 4-(difluoromethoxy)-N-(3-(5-(2-((2,2-dioxido-2-thiaspiro [3.3]heptan-6-yl)amino)pyrimidin-4-yl)-2-(3-(2,2,2-trifluoroethyl)-3,8-diazabicyclo-[3.2.1]octan-8-yl)thiazol-4-yl)-2-fluorophenyl) isoindoline-2-sulfonamide], the figure is 153 nM; as for `Cn1cc2c(n1)CN(S(=O)(=O)Nc1cccc(-c3nc(C(C)(C)C)sc3-c3ccnc(NC4CCN(S(C)(=O)=O)CC4)n3)c1F)C2` [Example 86, N-(3-(2-(tert-butyl)-5-(2-((1-(methylsulfonyl)-piperidin-4-yl)amino)-pyrimidin-4-yl)thiazol-4-yl)-2-fluoro-phenyl)-2-methyl-2,6-dihydro-pyrrolo[3,4-c]pyrazole-5(4H)-sulfonamide], 484 nM.
Still for that read-out and setting: next, `C[C@H]1COC[C@H](C)N1c1nc(-c2cccc(NS(=O)(=O)N3CCc4ccc(C(F)(F)F)cc43)c2F)c(-c2ccnc(N[C@H]3CC[C@H](S(C)(=O)=O)CC3)n2)s1` [Example 297, N-(3-(2-((38, 5S)-3,5-dimethyl-morpholino)-5-(2-(((1r,4S)-4-(methyl-sulfonyl)cyclohexyl)amino)pyrimidin-4-yl)thiazol-4-yl)-2~fluorophenyl)-6-(trifluoromethyl) indoline-1-sulfonamide]: 103 nM; `O=S1(=O)CC2(CC(Nc3nccc(-c4sc(C56CC(C5)C6)nc4-c4cccc(NS(=O)(=O)N5CCc6ccccc6C5)c4F)n3)C2)C1` [Example 46, N-(3-(2-(bicyclo [1.1.1]pentan-1-yl)-5-(2-((2,2-dioxido-2-thiaspiro[3.3]heptan-6-yl)amino)-pyrimidin-4-yl)thiazol-4-yl)-2-fluorophenyl)-3,4-dihydroisoquinoline-2(1H)-sulfonamide]: 476 nM; `CS(=O)(=O)C1CCC(Nc2nccc(-c3sc(C45CC(C(F)(F)F)(C4)C5)nc3-c3cccc(NS(=O)(=O)N4Cc5cccc(C(F)F)c5C4)c3F)n2)CC1` (stereo not drawn) [Example 58, 4-(difluoromethyl)-N-(2-fluoro-3-(5-(2-(((1r,4r)-4-(methylsulfonyl)cyclohexyl)-amino)pyrimidin-4-yl)-2-(3-(trifluoromethyl)-bicyclo[1.1.1]pentan-1-yl)thiazol-4-yl)phenyl)-isoindoline-2-sulfonamide]: 285 nM.
